Test results as given in ChEMBL document CHEMBL2021812, “Aryltriflates as a Neglected Moiety in Medicinal Chemistry: A Case Study from a Lead Optimization of CXCL8 Inhibitors” (ACS Med Chem Lett, 2011).

Experiments:
Hepatocyte [1] = assay: Drug metabolism in human hepatocytes assessed as (S)-2-(4-(trifluoromethylsulfonyloxy)phenyl)propanoic acid level at 10 uM after 60 mins; format: ADME, cell-based; settings: 1 h
Hepatocyte [2] = assay: Drug metabolism in rat hepatocytes assessed as (R)-2-(4-(trifluoromethylsulfonyloxy)phenyl)propanoic acid level at 10 uM after 30 mins; format: ADME, cell-based; settings: 0.5 h
Hepatocyte [3] = assay: Drug metabolism in human hepatocytes assessed as (R)-2-(4-(trifluoromethylsulfonyloxy)phenyl)propanoic acid level at 10 uM after 90 mins; format: ADME, cell-based; settings: 1.5 h
CYP2D6 = CYP2D6 (Homo sapiens, UniProt P10635); assay: Inhibition of CYP2D6 using AMMC as substrate at 10 uM; format: ADME; settings: probe AMMC
Hepatocyte [4] = assay: Drug metabolism in rat hepatocytes assessed as (S)-2-(4-(trifluoromethylsulfonyloxy)phenyl)propanoic acid level at 10 uM after 15 mins; format: ADME, cell-based; settings: 0.25 h
Hepatocyte [5] = assay: Drug metabolism in rat hepatocytes assessed as (R)-2-(4-(trifluoromethylsulfonyloxy)phenyl)propanoic acid level at 10 uM after 15 mins; format: ADME, cell-based; settings: 0.25 h
Hepatocyte [6] = assay: Drug metabolism in rat hepatocytes assessed as (R)-2-(4-(trifluoromethylsulfonyloxy)phenyl)propanoic acid level at 10 uM after 60 mins; format: ADME, cell-based; settings: 1 h
Hepatocyte [7] = assay: Drug metabolism in rat hepatocytes assessed as (S)-2-(4-(trifluoromethylsulfonyloxy)phenyl)propanoic acid level at 10 uM after 60 mins; format: ADME, cell-based; settings: 1 h
[8] = Metabolic stability in rat plasma assessed as compound remaining at 1 uM after 1 hr; format: ADME, cell-free; settings: read-out: Stability
Hepatocyte [9] = assay: Drug metabolism in human hepatocytes assessed as (R)-2-(4-(trifluoromethylsulfonyloxy)phenyl)propanoic acid level at 10 uM after 30 mins; format: ADME, cell-based; settings: 0.5 h
CYP1A2 = target: T1, CYP1A2 (Homo sapiens, UniProt P05177); assay: Inhibition of CYP1A2 using CEC as substrate at 10 uM; format: ADME; settings: probe CEC
T1 sequence (P05177 whole entry): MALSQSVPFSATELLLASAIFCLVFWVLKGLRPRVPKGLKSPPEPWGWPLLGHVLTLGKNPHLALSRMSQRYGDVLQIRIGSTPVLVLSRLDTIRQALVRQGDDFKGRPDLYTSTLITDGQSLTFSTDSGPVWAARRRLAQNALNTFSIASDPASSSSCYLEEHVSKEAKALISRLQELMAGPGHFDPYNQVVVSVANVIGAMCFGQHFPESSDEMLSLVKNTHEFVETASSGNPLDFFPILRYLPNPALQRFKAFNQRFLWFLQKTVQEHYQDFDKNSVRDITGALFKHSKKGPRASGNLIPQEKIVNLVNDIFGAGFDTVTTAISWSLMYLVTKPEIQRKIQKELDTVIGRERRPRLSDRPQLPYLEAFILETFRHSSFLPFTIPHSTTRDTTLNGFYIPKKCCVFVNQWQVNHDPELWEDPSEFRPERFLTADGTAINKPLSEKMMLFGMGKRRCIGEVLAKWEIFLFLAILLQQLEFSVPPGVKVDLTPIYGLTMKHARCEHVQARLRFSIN

Hepatocyte [10] = assay: Drug metabolism in human hepatocytes assessed as (R)-2-(4-(trifluoromethylsulfonyloxy)phenyl)propanoic acid level at 10 uM after 15 mins; format: ADME, cell-based; settings: 0.25 h
[11] = Chemical stability of the compound assessed as compound remaining at pH 9 after 2 hrs; format: physicochemical; settings: buffer, read-out: Stability
Hepatocyte [12] = assay: Drug metabolism in human hepatocytes assessed as (R)-2-(4-(trifluoromethylsulfonyloxy)phenyl)propanoic acid level at 10 uM after 60 mins; format: ADME, cell-based; settings: 1 h
Hepatocyte [13] = assay: Drug metabolism in human hepatocytes assessed as (R)-2-(4-(trifluoromethylsulfonyloxy)phenyl)propanoic acid level at 10 uM after 120 mins; format: ADME, cell-based; settings: 2 h
[14] = Clearance in Sprague-Dawley rat at 14 mg/kg, iv; format: ADME, organism-based; set-up: dose 14 mg/kg, route intravenous; settings: in vivo
[15] = target: Voltage-gated inwardly rectifying potassium channel KCNH2 (Homo sapiens, UniProt Q12809); assay: Displacement of [3H]astemizole from human ERG expressed in HEK293 cells at 10 uM for 60 mins by liquid scintillation counting; format: cell-based; settings: hek293, 1 h
[16] = Metabolic stability in rat liver microsomes assessed as compound remaining at 1 uM preincubated for 10 mins measured after 30 mins; format: ADME, Microsome; settings: read-out: Stability
Hepatocyte [17] = assay: Drug metabolism in rat hepatocytes assessed as (S)-2-(4-(trifluoromethylsulfonyloxy)phenyl)propanoic acid level at 10 uM after 30 mins; format: ADME, cell-based; settings: 0.5 h
Hepatocyte [18] = assay: Drug metabolism in human hepatocytes assessed as (S)-2-(4-(trifluoromethylsulfonyloxy)phenyl)propanoic acid level at 10 uM after 15 mins; format: ADME, cell-based; settings: 0.25 h
[19] = Elimination half life in Sprague-Dawley rat at 14 mg/kg, iv; format: ADME, organism-based; set-up: dose 14 mg/kg, route intravenous; settings: in vivo, read-out: beta t1/2 (converted)
[20] = Oral bioavailability in Sprague-Dawley rat at 14 mg/kg; format: ADME, organism-based; settings: in vivo
Hepatocyte [21] = assay: Drug metabolism in rat hepatocytes assessed as (R)-2-(4-(trifluoromethylsulfonyloxy)phenyl)propanoic acid level at 10 uM after 90 mins; format: ADME, cell-based; settings: 1.5 h
[22] = Dissociation constant, pKa of the compound; format: physicochemical
Hepatocyte [23] = assay: Drug metabolism in rat hepatocytes assessed as (R)-2-(4-(trifluoromethylsulfonyloxy)phenyl)propanoic acid level at 10 uM after 120 mins; format: ADME, cell-based; settings: 2 h
Hepatocyte [24] = assay: Drug metabolism in human hepatocytes assessed as (S)-2-(4-(trifluoromethylsulfonyloxy)phenyl)propanoic acid level at 10 uM after 90 mins; format: ADME, cell-based; settings: 1.5 h
CYP3A4 = CYP3A4 (Homo sapiens, UniProt P08684); assay: Inhibition of CYP3A4 using BFC as substrate at 10 uM; format: ADME; settings: probe BFC
[25] = target: T2, C-X-C chemokine receptor type 2 (Homo sapiens) (UniProt P25025); assay: Inhibition of CXCR2 in human polymorphonucleate cells assessed as inhibition of CXCL1-induced chemotaxis at 10^-8 M incubated for 15 mins prior to CXCL1-induction measured after 45 mins
T2 sequence (whole entry): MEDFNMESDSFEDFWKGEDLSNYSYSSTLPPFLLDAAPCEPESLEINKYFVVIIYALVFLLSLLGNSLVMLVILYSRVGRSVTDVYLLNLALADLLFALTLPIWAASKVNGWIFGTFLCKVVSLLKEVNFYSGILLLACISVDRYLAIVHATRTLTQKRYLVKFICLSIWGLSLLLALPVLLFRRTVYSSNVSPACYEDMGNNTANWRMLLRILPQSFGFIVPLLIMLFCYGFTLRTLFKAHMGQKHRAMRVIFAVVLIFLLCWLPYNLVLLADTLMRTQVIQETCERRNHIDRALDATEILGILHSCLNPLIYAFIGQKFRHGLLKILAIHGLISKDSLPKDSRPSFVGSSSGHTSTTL

[26] = Chemical stability of the compound assessed as compound remaining at pH 3.5 after 2 hrs; format: physicochemical; settings: buffer, read-out: Stability
CYP2C19 = CYP2C19 (Homo sapiens, UniProt P33261); assay: Inhibition of CYP2C19 using DBF as substrate at 10 uM; format: ADME; settings: probe DBF
Hepatocyte [27] = assay: Drug metabolism in rat hepatocytes assessed as (S)-2-(4-(trifluoromethylsulfonyloxy)phenyl)propanoic acid level at 10 uM after 120 mins; format: ADME, cell-based; settings: 2 h
Hepatocyte [28] = assay: Drug metabolism in human hepatocytes assessed as (S)-2-(4-(trifluoromethylsulfonyloxy)phenyl)propanoic acid level at 10 uM after 30 mins; format: ADME, cell-based; settings: 0.5 h
[29] = target: Interleukin-8 receptors, CXCR1/CXCR2 (Homo sapiens) (UniProt P25025+P25024); assay: Inhibition of CXCR1/2 in human polymorphonucleate cells assessed as inhibition of CXCL8-induced chemotaxis at 10^-8 M incubated for 15 mins prior to CXCL8-induction measured after 45 mins
Hepatocyte [30] = assay: Drug metabolism in human hepatocytes assessed as (S)-2-(4-(trifluoromethylsulfonyloxy)phenyl)propanoic acid level at 10 uM after 120 mins; format: ADME, cell-based; settings: 2 h
CYP2C9 = CYP2C9 (Homo sapiens, UniProt P11712); assay: Inhibition of CYP2C9 using 7MFC as substrate at 10 uM; format: ADME; settings: probe 7MFC
Hepatocyte [31] = assay: Drug metabolism in rat hepatocytes assessed as (S)-2-(4-(trifluoromethylsulfonyloxy)phenyl)propanoic acid level at 10 uM after 90 mins; format: ADME, cell-based; settings: 1.5 h

CYP2D6, sequence (P10635 whole entry): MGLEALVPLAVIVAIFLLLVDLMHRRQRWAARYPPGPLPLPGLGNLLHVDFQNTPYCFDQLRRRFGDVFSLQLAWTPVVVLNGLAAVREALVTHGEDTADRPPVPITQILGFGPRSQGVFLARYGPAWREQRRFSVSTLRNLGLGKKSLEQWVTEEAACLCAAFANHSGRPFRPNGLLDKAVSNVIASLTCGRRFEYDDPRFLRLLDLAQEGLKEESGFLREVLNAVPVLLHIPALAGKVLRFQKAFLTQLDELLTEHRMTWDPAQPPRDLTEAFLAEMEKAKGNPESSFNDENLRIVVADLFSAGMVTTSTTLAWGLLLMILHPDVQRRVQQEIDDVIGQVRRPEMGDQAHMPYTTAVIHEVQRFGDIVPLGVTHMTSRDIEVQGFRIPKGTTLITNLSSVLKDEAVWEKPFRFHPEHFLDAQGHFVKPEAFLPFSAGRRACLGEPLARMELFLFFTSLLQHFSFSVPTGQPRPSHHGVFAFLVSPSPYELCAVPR
CYP3A4, sequence (P08684 whole entry): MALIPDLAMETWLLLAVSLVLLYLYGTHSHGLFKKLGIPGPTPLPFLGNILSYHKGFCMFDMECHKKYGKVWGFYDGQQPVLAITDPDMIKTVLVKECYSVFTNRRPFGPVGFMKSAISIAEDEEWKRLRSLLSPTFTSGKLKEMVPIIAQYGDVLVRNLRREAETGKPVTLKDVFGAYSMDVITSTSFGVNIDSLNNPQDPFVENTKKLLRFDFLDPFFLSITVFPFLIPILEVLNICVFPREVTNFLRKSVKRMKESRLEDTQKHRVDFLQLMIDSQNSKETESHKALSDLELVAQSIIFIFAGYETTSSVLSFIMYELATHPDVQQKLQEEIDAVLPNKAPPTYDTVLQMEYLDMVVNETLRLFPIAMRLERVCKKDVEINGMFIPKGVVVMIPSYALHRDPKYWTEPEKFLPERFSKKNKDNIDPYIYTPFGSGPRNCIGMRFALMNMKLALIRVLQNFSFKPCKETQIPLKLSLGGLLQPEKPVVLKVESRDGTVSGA
CYP2C9, sequence (P11712 whole entry): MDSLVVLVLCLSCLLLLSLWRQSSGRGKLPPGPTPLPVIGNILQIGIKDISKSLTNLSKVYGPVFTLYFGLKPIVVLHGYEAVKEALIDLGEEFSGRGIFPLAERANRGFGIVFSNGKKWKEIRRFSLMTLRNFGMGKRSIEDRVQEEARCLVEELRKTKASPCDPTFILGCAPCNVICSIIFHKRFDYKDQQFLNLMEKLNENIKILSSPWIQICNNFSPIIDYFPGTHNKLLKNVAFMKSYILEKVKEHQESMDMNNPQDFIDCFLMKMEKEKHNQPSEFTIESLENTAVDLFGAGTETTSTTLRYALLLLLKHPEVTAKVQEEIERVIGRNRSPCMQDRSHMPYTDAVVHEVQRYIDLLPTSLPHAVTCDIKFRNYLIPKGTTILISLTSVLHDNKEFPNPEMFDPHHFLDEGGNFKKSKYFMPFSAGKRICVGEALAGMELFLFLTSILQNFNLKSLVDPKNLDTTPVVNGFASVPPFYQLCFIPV
CYP2C19, sequence (P33261 whole entry): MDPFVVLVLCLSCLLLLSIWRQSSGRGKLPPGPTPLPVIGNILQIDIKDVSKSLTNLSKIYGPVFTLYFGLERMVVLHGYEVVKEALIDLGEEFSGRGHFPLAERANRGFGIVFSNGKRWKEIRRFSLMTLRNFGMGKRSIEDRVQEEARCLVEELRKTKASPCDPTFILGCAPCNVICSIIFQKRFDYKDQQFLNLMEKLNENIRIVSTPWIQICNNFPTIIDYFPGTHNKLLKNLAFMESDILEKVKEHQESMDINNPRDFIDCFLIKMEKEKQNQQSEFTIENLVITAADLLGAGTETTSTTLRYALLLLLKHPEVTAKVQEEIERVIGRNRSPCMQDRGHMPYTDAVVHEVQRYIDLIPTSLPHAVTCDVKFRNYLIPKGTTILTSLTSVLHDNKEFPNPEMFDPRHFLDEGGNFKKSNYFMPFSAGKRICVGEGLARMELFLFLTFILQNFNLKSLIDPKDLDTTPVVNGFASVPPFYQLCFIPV
Voltage-gated inwardly rectifying potassium channel KCNH2, sequence (Q12809 whole entry): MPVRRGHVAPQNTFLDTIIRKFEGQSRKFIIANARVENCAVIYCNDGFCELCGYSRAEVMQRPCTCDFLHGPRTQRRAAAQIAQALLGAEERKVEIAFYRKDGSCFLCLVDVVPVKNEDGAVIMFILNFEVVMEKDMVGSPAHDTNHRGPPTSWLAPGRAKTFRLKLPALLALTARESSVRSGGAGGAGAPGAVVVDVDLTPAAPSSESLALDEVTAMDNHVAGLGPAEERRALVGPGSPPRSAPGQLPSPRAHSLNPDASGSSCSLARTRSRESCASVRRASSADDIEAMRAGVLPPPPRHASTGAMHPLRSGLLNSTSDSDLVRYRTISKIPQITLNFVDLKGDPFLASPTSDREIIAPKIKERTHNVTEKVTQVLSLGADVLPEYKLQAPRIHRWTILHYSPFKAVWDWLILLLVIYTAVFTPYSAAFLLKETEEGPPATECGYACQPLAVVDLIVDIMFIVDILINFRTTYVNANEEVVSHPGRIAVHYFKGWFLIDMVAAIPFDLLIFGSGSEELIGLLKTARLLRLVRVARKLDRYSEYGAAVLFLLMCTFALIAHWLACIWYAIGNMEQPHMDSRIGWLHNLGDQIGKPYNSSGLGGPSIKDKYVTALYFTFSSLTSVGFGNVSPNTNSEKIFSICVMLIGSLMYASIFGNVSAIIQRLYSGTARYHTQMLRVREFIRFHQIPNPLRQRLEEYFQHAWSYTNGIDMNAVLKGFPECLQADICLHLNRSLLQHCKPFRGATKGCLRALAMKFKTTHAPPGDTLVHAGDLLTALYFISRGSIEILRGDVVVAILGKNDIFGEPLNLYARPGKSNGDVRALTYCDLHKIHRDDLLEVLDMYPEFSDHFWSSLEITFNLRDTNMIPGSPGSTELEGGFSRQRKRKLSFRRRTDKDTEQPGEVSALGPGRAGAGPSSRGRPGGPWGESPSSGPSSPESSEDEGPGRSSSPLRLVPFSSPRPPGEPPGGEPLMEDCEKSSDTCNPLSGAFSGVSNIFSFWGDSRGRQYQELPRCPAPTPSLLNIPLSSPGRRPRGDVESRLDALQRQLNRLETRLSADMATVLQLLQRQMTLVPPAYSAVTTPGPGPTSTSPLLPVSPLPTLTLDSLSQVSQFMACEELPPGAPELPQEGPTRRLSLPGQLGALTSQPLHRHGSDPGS

Drug metabolism (Hepatocyte [1]): 2 ng/mL
Drug metabolism (Hepatocyte [2]): 5 ng/mL
Drug metabolism (Hepatocyte [3]): 20 ng/mL
inhibition at 10 µM (CYP2D6): < 5%
Drug metabolism (Hepatocyte [4]): 7 ng/mL
Drug metabolism (Hepatocyte [5]): 22 ng/mL
Drug metabolism (Hepatocyte [6]): 3 ng/mL
Drug metabolism (Hepatocyte [7]): 50 ng/mL
remaining at 1 h, 1 µM [8]: 100%
Drug metabolism (Hepatocyte [9]): 3 ng/mL
inhibition at 10 µM (CYP1A2): < 5%
Drug metabolism (Hepatocyte [10]): < 1 ng/mL
remaining at 2 h [11]: 30%
Drug metabolism (Hepatocyte [12]): 15 ng/mL
Drug metabolism (Hepatocyte [13]): 30 ng/mL
clearance [14]: 0.1 mL/min/kg
remaining at 0.5 h, 1 µM [16]: 100%
Drug metabolism (Hepatocyte [17]): 31 ng/mL
Drug metabolism (Hepatocyte [18]): < 1 ng/mL
half-life [19]: 19 h
bioavailability [20]: 100%
Drug metabolism (Hepatocyte [21]): 5 ng/mL
pKa [22]: 4.4
Drug metabolism (Hepatocyte [23]): 4 ng/mL
Drug metabolism (Hepatocyte [24]): 3 ng/mL
inhibition at 10 µM (CYP3A4): < 5%
inhibition [25]: 68%
remaining at 2 h [26]: > 99%
inhibition at 10 µM (CYP2C19): < 5%
Drug metabolism (Hepatocyte [27]): 56 ng/mL
Drug metabolism (Hepatocyte [28]): < 1 ng/mL
inhibition [29]: 67%
Drug metabolism (Hepatocyte [30]): 6 ng/mL
inhibition at 10 µM (CYP2C9): < 5%
Drug metabolism (Hepatocyte [31]): 54 ng/mL
Structure (SMILES): C[C@@H](C(=O)NS(C)(=O)=O)c1ccc(OS(=O)(=O)C(F)(F)F)cc1 [LADARIXIN]
inhibition (INH) [15]: Not Active
